The test system of assay [1] is BCG immunisierten Adjuvans-Arthritis-Ratte. Put plainly: Skin test (delayed hypersensitivity, PPD) in BCG-immunised adjuvant arthritis rat. It counts as in vivo. The conditions noted are these: 25 mg/kg/p.o. The source says:
Die Erhöhung der durch die Zellen vermittelten Immunität wird in-vivo an der mit BCG-immunisierten arthritischen Ratten durch Messung der Verzögerung der Ueberempfindlichkeitsreaktion, im wesentlichen wie in Current Therapeutic Research 30, S 34 (1981) beschrieben, gemessen.
Männliche Charles River Ratten von einem Gewicht von 325-400 g werden sensibilisiert, indem man jedem Versuchstier in die rechte hintere Pfotensohle […] Mycobacterium tuberculosis (Difco), das in Freund' schem Adjuvans (Freund's incomplete adjuvant) suspendiert ist, injiziert. Die Tiere werden am 18. Tag nach der Adjuvans-Injektion mit 0,1 ml BCG-Vakzine intradermal immunisiert. Die Wirksubstanz wird peroral in einer Maisstärke-Suspension verabreicht. Die Kontrolltiere werden lediglich mit der Maisstärke behandelt. Alle Tiere werden am 29. Tag an der Haut durch intradermale Verabreichung von 10 pg PPD (purified protein derivative) getestet, um Hautreaktionen hervorzurufen. Der Durchmesser des Erythems und die Erhärtungsreaktion werden 24 Stunden nach der Antigen-Behandlung gemessen. Eine […] des Erythem-Durchmessers deutet auf die erhöhte Zellenimmunität hin.

The test system of assay [2] is durch Carrageenin hervorgerufenen Oedem. The experiment in a line: Carrageenan paw oedema test. It counts as in vivo, Ratte. To be noted: rat. How it is done:
Der Carrageenin-Photenödem-Test in Hinsicht auf die antiinflammatorische Wirkung wird an der Ratte wie folgt durchgeführt: • Eine Stunde nach der oralen Verabreichung der Wirksubstanz wird in die Sohle einer hinteren Pfote 0,1 ml Carrageenin (1%-ig) injiziert. In bestimmten Zeiten wird dann die Differenz der Schwellung zwischen der behandelten und der intakten gegenseitigen Pfote durch Quecksilber-Verdrängung gemessen.
Als Beispiele der Erfindung seien das ß-0xo-a-(phenylcarbamoyl)-ß-(2-pyrrolyl)-propionitril des Beispeils 1 und das ß-0xo-a-(4-chlorphenyl)-ß-(2-pyrrolyl)-propionitril des Beispiels 2 genannt, welche bei einer peroralen Dosis von 100 mg/kg, gegen die durch Carrageenin hervorgerufenen Oedem an der Ratte, 3 Stunden nach der Verabreichung, einen 46 bzw. 63%-igen Schutz gewähren. Analog ergibt das β-Oxo-α-(2,4- difluorphenylcarbamoyl)-ß-(2-pyrrolyl)-propionitril des Beispiels 3, bei einer Dosis von 25 mg/kg/p.o. einen 33%-igen Schutz.
(In the carrageenan paw model, swelling and tenderness develop within hours.)

For a further assay, the system named is Adjuvans-Arthritis. Put plainly: Adjuvant arthritis test. Format: in vivo, Ratte. To be noted: rat, 25 mg/kg/p.o. How it is done: Der übliche Adjuvans-Arthritis-Test für die anti-arthritische Aktivität wird im wesentlichen wie in Proc. Soc. Exp. Biol. Med. 137, 506 (1971) durchgeführt.
Weiter sind die Verbindungen der Erfindung, z.B. die vorher genannten Verbindungen der Beispiele 1, 2 und 3 in dem üblichen Adjuvans- Arthritis-Test an der Ratte bei einer Dosis von 25 mg/kg/p.o. aktiv und sie gewähren einen Schutz von 47%, 58% bzw. 55Z.
Beispiel 13: Der Schutz im üblichen Adjuvans-Arthritis-Test, der im wesentlichen gemäss Proc. Soc. Exp. Biol. Med. 137, 506 (1971) durchgeführt wird, ist wie folgt: […]

Where [3] appears, read: 100 mg/kg peroral, 3 hours after administration.

Each structure is given as a SMILES string.

For the compound `N#CC(C(=O)Nc1ccccc1)C(=O)c1ccc[nH]1` (stereo not shown) [Beispiel 1, ß-Oxo-a-(phenylcarbamoyl)-ß-(2-pyrollyl)-propionitril], in assay [1], the “Wirkung im Haut-Test (immunopotenzierende Wirkung)” value is reported as “signifikante Wirkung”. Also, in assay [2] (setting [3]), the “Schutz gegen die durch Carrageenin hervorgerufenen Oedem” value is recorded as 46%. Besides, in the assay on Adjuvans-Arthritis, the “Schutz im Adjuvans-Arthritis-Test” value is given as 47%.
For `N#CC(C(=O)Nc1ccc(Cl)cc1)C(=O)c1ccc[nH]1` (stereo not drawn) [Beispiel 2, β-Oxo-α-(4-chlorphenylcarbamoyl)-ß-(2-pyrrolyl)-propionitril], in that order: “signifikante Wirkung”, 63% and 58%.
As for `N#CC(C(=O)Nc1ccc(F)cc1F)C(=O)c1ccc[nH]1` (stereo not shown) [Beispiel 3, ß-0xo-a-(2,4-difluorphenylcarbamoyl)-ß-(2-pyrrolyl)-propionitril], in assay [2] (25 mg/kg/p.o.), the “Schutz gegen die durch Carrageenin hervorgerufenen Oedem” value is recorded as 33%.

The values are drawn from patent publication EP0156091A1, “Beta-oxo-alpha-carbamoyl-pyrrolepropionitriles, processes for their preparation, pharmaceutical compositions comprising these compounds and their therapeutic use” (CIBA-GEIGY AG, priority 1984, dated 1985).
